Assay: gradient 5% acetonitrile 3 min, to 50% in 2 min, to 85% in 15 min, held 3 min, 100 µL/min
Conditions: column: Zorbax Extend-C18 2.1 x 50 mm; eluents: water / acetonitrile, 0.1% formic acid
How it was run: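 Data were gathered over 3 months by HPLC coupled to a quadrupole time-of-flight mass spectrometer, operated in positive and negative ionization mode. Mixtures of ~100 pure standards ran on a Zorbax Extend-C18 column (2.1 × 50 mm, 1.8 μm) at 100 μL/min, with water and acetonitrile each containing 0.1% formic acid and dead and dwell volumes of 40 μL and 900 μL. Retention time was read from adduct peaks picked by computer and checked manually.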

Structure (SMILES) | RP-LC retention time [s]
COc1ccc(C2C(C(=O)N3CC(C)CC(C)C3)CCC(=O)N2c2ccc(OC)cc2)cc1 (stereo not drawn) | 871
Cc1ccc(S(=O)(=O)N2CCC3(CC2)NCCN=C3NCc2cc(F)cc(F)c2)cc1 | 734
CCCn1ncc(N2CCC(C(=O)N3CCOCC3)CC2)cc1=O | 619
O=C(CSc1cc(N2CCN(c3ccccc3F)CC2)ncn1)Nc1ccc(Cl)cc1F | 1310
CCN(CC)S(=O)(=O)c1ccc2nc(NCc3ccc4c(c3)OCO4)cnc2c1 | 964
Cn1nccc1-c1nc(-c2ccc3oc(-c4ccccc4)nc3c2)no1 | 1230
CN(C)c1cc(N2CCCC(NC(=O)c3cccn3C)C2)ncn1 (stereo not drawn) | 571
Cc1ccc(-c2ncccc2CNS(=O)(=O)c2cccs2)cc1 | 675
CCN1CCN(c2nccc(-c3cnc4nc(-c5ccncc5)nn4c3C)n2)CC1 | 562
O=C(C1CCCN(c2ncnc3c2nc2n3CCCCC2)C1)N1CCCCC1 (stereo not drawn) | 713
CC1CCN(S(=O)(=O)c2ccc(-c3nnc(C(=O)NCc4ccccc4)o3)cc2)CC1 | 1040
COc1ccccc1-c1noc(Cn2c(=O)n(Cc3ccccc3Cl)c(=O)c3sccc32)n1 | 1130
COc1ccccc1-c1nc(Cn2nnc(-c3nc(-c4ccccc4)no3)c2C)c(C)o1 | 1140
O=C(NC1CC1)C1CCCN(c2cnc3nccnc3c2)C1 (stereo not drawn) | 592
Cc1ccccc1N1CCN(CCc2nnc3n2CCCC3)CC1 | 573
Cc1ccccc1Nc1nc(N)c2c(F)cccc2n1 | 610
Cc1nc2c(sc3nc(-c4ccccc4)ccc32)c(=O)n1CC(=O)Nc1ccccc1Cl | 1090
O=C(NCc1cc(F)ccc1F)C1CCN(C(=O)c2ncn3c2COC(c2ccccc2)C3)CC1 (stereo not drawn) | 766
O=C(NCc1nn(Cc2ccccc2)c2ccccc12)c1ccco1 | 853
CC(C)NC(=O)c1ccc(OCC2CCN(C(=O)Cc3ccc(Cl)cc3)CC2)cc1 | 927
Cc1ccsc1C(=O)Nc1ccc(OCc2nnc(-c3ccc(Cl)cc3)o2)cc1 | 1010
O=C(Cc1nc(-c2cnccn2)n[nH]1)NCc1ccccc1 | 583
Cc1ccc2c(c1)N(C)N=C(C(=O)N1CCCCCC1)S2(=O)=O | 839
CC(=O)Nc1cccc(C(C(F)(F)F)C(F)(F)F)c1 | 778
O=C(c1ccc2c(c1)OCO2)N1CCN(c2cc(-c3ccc(Cl)cc3)[nH]n2)CC1 | 836
Cc1ccc(S(=O)(=O)c2cnc(N3CCN(c4ccccn4)CC3)nc2N)cc1 | 1160

Structure (SMILES) | RP-LC retention time [s]
O=C(c1ccoc1)N1CCN(C(=O)c2nnn3c2COC(c2ccccc2)C3)CC1 (stereo not drawn) | 767
Cc1cc(OCC(=O)Nc2ccccc2)nc(N2CCN(c3ccccc3)CC2)n1 | 804
CC(Cc1ccco1)NC(=O)C1CCN(Cc2cn(C)c3ccc(Cl)cc23)CC1 (stereo not drawn) | 707
O=c1ccc(-c2ccc3c(c2)OCO3)nn1Cc1nc(-c2ccc(F)cc2)no1 | 988
Cc1ccc(CNC(=O)c2nnc(-c3ccc(S(=O)(=O)N4CCCCC4)cc3)o2)cc1 | 1020
CCn1cc(-c2ccccc2)cc1C(=O)NCc1ccccn1 | 703
Cc1nc(NC2=NCN(Cc3ccc4c(c3)OCO4)CN2)nc2ccccc12 | 707
Cc1cc(NC(=O)C2CCCN2S(=O)(=O)c2ccc(Cl)s2)n(C(C)C)n1 (stereo not drawn) | 776
c1cc2c3c(cccc3c1)NC1(CCC3(CC1)Nc1cccc4cccc(c14)N3)N2 | 1200
O=C(Cc1cccc(F)c1)Nc1nnc(C2CC(=O)N(c3ccc(Cl)cc3)C2)o1 (stereo not drawn) | 800
CNC(=O)c1cc[nH]c1C1CCCN(C(=O)C2CC=CCC2)C1 (stereo not drawn) | 672
CSc1ccc(NC(=O)Nc2cccc(-c3ccc(N4CCOCC4)nn3)c2)cc1 | 726
CCN(CC)CCCNC(=O)Cn1c(=O)c2cccn2c2ccccc21 | 602
O=C(Nc1ccc2c(c1)CC(C(=O)NCCCc1ccccc1)CO2)c1cccs1 (stereo not drawn) | 900
CC(C)N1CCN(C(=O)c2csc(C(=O)NC3CCCC3)n2)CC1 | 590
CCc1c(C)nc2nc(-c3ccccc3)nn2c1Nc1cc(OC)ccc1OC | 972
Cc1ccccc1-c1noc(Cn2cnc3c(cnn3-c3cc(Cl)ccc3C)c2=O)n1 | 1100
CCN1c2ccccc2C(=O)NC12CCN(C(=O)NCCc1ccccc1)CC2 | 773
CN(C)c1ccc(CNC(=O)CCCN2C(=O)CCn3nc(-c4cn(C)c5ccccc45)cc32)cc1 | 602
C=C1C(=O)C2=CC1CCC(=O)C1(C)CCC(OC(C)=O)C(C)(C)C1CC2O (stereo not drawn) | 718
COc1ccc(-n2nc(C)c3sc(N4CCCC(C(=O)NC5CCCC5)C4)nc32)cc1 (stereo not drawn) | 1040
CN(C)CCNC(=O)C1CCN(c2nccnc2Sc2ccccc2)CC1 | 629
c1ccc(Cc2nn3c(CSc4ccccc4)nnc3s2)cc1 | 927
O=C(NCCCn1ncccc1=O)c1ccc(S(=O)(=O)N2CCCC2)cc1 | 621
O=C(NC1CC1)C1CCN(c2nc3ccc(-c4cccs4)nc3s2)CC1 | 809

Results, then the compound that gave them:

RP-LC retention time [s] | Structure (SMILES)
823 | COc1ccc(CC(C)(O)CNC(=O)c2cccc(C(F)(F)F)c2)cc1 (stereo not drawn)
1220 | O=C(NCc1cccc(Cl)c1)c1c(O)c2cccnc2n(-c2ccccc2)c1=O
615 | CCOC(=O)C1=C(CN2CCN(c3ccccn3)CC2)NC(=O)NC1c1cccc(OC)c1OC (stereo not drawn)
724 | Cc1cc(C(=O)N2CCC3(CC2)C(=O)N(C)c2ccccc23)n(C)n1
660 | COc1cccc(CCC(=O)NC(C)C(=O)Nc2nc3ccccc3[nH]2)c1 (stereo not drawn)
968 | Cc1ccc(CNC(=O)Cn2nc(C)c3sc(-c4ccccc4)nc3c2=O)cc1C
1130 | COC(=O)c1ccccc1Nc1c(-c2ccc(Br)cc2)nc2cnccn12
926 | COc1ccc(CNC(=O)c2cc3c(s2)N(C)CCC3)c(OC)c1
1050 | Cn1c(C(=O)Nc2cccc(Cl)c2)cc2c(=O)oc3ccccc3c21
631 | C=CCN1CCN(c2nc3cc(C(=O)OC)ccc3c(=O)n2-c2ccc(OC)c(OC)c2)CC1
826 | CCN1c2ccc(C)cc2C(=O)NC12CCN(C(=O)c1ccc(F)c(F)c1)CC2
1160 | CCOc1cccc(-c2noc(Cc3nnc(-c4cccc(Br)c4)o3)n2)c1
1030 | Cc1ccc(-n2ccnc(NC(=O)Nc3ccc(F)cc3)c2=O)cc1C
818 | CCCNS(=O)(=O)c1cc2c(cc1C)CCN2C(=O)CC
768 | CCOC(=O)c1c(C)[nH]c2cc(Br)c(O)cc12
872 | CCOc1ccc2ccccc2c1C(=O)NCCc1ccsc1
753 | COc1ccccc1CC(=O)N1CCCC1c1c(C)noc1C (stereo not drawn)
1030 | CCn1cc(-c2nc(C(=O)Nc3cccc(C#N)c3)cs2)c2cccnc21
894 | CCOC(=O)c1[nH]c(C)c(CN(Cc2ccco2)C(=O)c2ccc(N(C)C)cc2)c1C

RP-LC retention time [s] | Structure (SMILES)
725 | Cc1ccc(CNC(=O)CN2CCN(C(=O)Nc3ccc(Cl)cc3)CC2=O)o1
908 | COc1cccc(-c2noc(CN3C(=O)COc4ccccc43)n2)c1OC
1030 | Cc1oc(C2CCC2)nc1C(=O)NCc1cc(F)ccc1F
1180 | CCc1nc2cc(-c3noc(/C=C/c4ccc(C)o4)n3)ccc2o1
596 | CCN1CCN(c2cc(C(=O)O)c3cc(NS(=O)(=O)c4cccc(C)c4)ccc3n2)CC1
1010 | CCOc1ccc(-c2noc(CN3C(=O)COc4ccc(C)cc43)n2)cc1OC
883 | COCCn1cc2c3c(cccc31)CN(C(=O)Nc1ccc(OC)cc1OC)CC2
652 | Cc1c(CCC(=O)N2CCC3(O)CCCCC3C2)c(=O)oc2cc(O)ccc12 (stereo not drawn)
707 | C#Cc1cccc(Nc2ncnc3cc(OC)c(OCCCCCCC(=O)NO)cc23)c1
916 | CCCN1C(=O)C(NC(=O)CCc2ccccc2)(C(F)(F)F)C(C(=O)OC)=C1C (stereo not drawn)
935 | CCOc1ccc(N2CC(c3nnc(NC(=O)c4ccc(C(C)(C)C)cc4)o3)CC2=O)cc1 (stereo not drawn)
1000 | CCOC(=O)c1nc(NCc2ccc(OC(C)C)cc2)c2c(C)noc2n1
591 | O=C(C1CC(=O)N(c2n[nH]c3ccccc23)C1)N1CCC(c2nc3ccccc3[nH]2)CC1 (stereo not drawn)
935 | CCOC(=O)c1[nH]c(C)c(CN(Cc2ccco2)C(=O)c2ccc3c(c2)OCO3)c1C
666 | Cc1cc(-c2nnc(-c3ccccc3)o2)c(C)n1CC(=O)N1CCN(C2CCCCC2)CC1
658 | Cc1ccc(NS(=O)(=O)c2cc3n(c2)CCCNC3=O)cc1C
773 | CCOC(=O)C12CC1/C(=N\O)c1ccccc1O2 (stereo not drawn)
626 | Cc1ccc(CNC(=O)C2CCN(c3cn[nH]c(=O)c3)C2)o1 (stereo not drawn)

Reference: the METLIN SMRT retention time set (Domingo-Almenara et al. 2019)
